According to publication PMC11239005, “Preclinical studies of RA475, a guanidine-substituted spirocyclic candidate RPN13/ADRM1 inhibitor for treatment of ovarian cancer” (PLOS ONE, 2024):

Tests used:
[1] = Stability in liver microsomes (species not separated in text); assay type: in vitro ADME
Experimental: Human and mouse liver microsomes and NADPH regenerating system solutions were purchased from Corning Life Sciences (Tewsbury, MA). Human and mouse K2EDTA-treated plasma was purchased from BioIVT (Westbury, NY). Metabolic studies in liver microsomes (0.125 mg/mL) were conducted in 1x PBS (pH 7.4), NADPH-generating system, and 10 μM RA475 in a final volume of 250 μL. An incubation mixture with or without NADPH-generating system, as well as a neat solution prepared without microsomes and NADPH-generating system was used. RA475 was added at the same concentration level into human and mouse EDTA plasma. All reactions were initiated with the addition of RA475. Incubations were performed in glass tubes maintained at 37°C in a shaker bath. At 0, 30, and 60 min, 10 μL samples were withdrawn from the reaction mixture, and 0.5 mL of acetonitrile containing internal standard was added to each. Samples were vortex-mixed and subjected to centrifugation for 5 min at 1430 x g. A 10 μL aliquot of the supernatant was injected onto the LC-MS/MS instrument for qualitative analysis using a temperature-controlled autosampling device operating at 5°C (See Pharmacokinetic section).

[2] = tested on: ID8-Vegf Defb29 cells stably expressing firefly luciferase; assay: Syngeneic ID8-luc ovarian tumor model, IP; assay type: in vivo; details: C57BL6 mice, 40 mg/Kg every 3 days IP
Experimental: Female C57BL6 mice were inoculated IP with 3x10^5 ID8-Defb29/VegfA-luc cells in 100 μL PBS. At day 3, mice were imaged for basal level luminescence activity with a Xenogen IVIS 200 after IP injection with luciferin (0.3 mg in 100 μL water). Mice were randomized into groups and treated IP with compounds or vehicle (25% (w/v) β-Hydroxypropylcyclodextrin in water), and imaged again on days indicated.
In addition to direct tumor cell killing, it is possible that RA475 may trigger an immunogenic cell death and thus anti-tumor immunity that could contribute to tumor control. Therefore, we elected to first test the treatment potential of RA475 in an ovarian tumor in a syngeneic mouse model. Since ovarian cancer is shed into, and spread within the peritoneal cavity, female C57BL6 mice were injected IP with ID8-Vegf Defb29 cells stably expressing firefly luciferase (0.5 x 10^6 cells ID8-luc) in PBS (100 μL). After 72 h, mice were imaged for their basal luminescence levels using an IVIS200 imager to confirm the presence of viable tumor cells. Mice with visible luminescence were randomized into two groups and treated with Vehicle (25% β-hydroxy propylcyclodextrin in water, 200 μL, every 3 days, IP) and RA475 (40 mg/Kg, every 3 days, IP). Mice were weighed and, after administration of luciferin (100 μL, 7.8 mg/mL), imaged every week to assess bioluminescence associated with tumor burden. […]
Fig 6 Treatment with RA475 of mice bearing an orthotopic syngeneic ovarian cancer model tumor. Female C57BL6 mice bearing ID8-Luc tumor were monitored for tumor burden by IVIS imaging (A), survival (B) and animal weight (C) after treatment with IP treatment every three days with RA475 (40mg/Kg, n = 8) or vehicle alone (n = 7). […] After 72 h, mice were imaged after administration of luciferin (100 μL, 7.8 mg/mL) for their basal luminescence levels using an IVIS200 imager. Mice with visible luminescence were randomized into two groups and treated with Vehicle alone (25% β-hydroxy propylcyclodextrin in water, 200 μL, every 3 days, IP) or RA475 (40 mg/Kg, every 3 days, IP). […]

Cl.Cl.N#Cc1ccc(/C=C2/C(=O)/C(=C/c3ccc(C#N)cc3)C23CCN(C(=N)N)CC3)cc1 [RA475, 1,3-bis((E)-4-cyanobenzylidene)-2-oxo-7-azaspiro[3.5]nonane-7-carboximidamide dihydrochloride]
present after 1 h in liver microsomes [1]: 93% | survival [2]: prolonged survival | tumor burden by bioluminescence [2]: tumor control | animal weight ([2]; while on treatment): continue to gain weight
